Laboratory results as given in the supplement of paper PMC10883282.
Where a name gives a salt, the structure may show the parent alone. ± gives the standard deviation of the averaged measurements.

Test system: KHOS-NP
Test: relative viability vs DMSO control (72 h) (fraction); higher = more viable cells
How it was run: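 Sarcoma cell lines in 384-well plates, seeded to reach 80–90% confluence, were given compound after 24 h and kept 72 h at 37 °C, 5% CO2, with 0.1% DMSO vehicle and a 5 µM positive control. Relative viability came from ATPLite as percent growth, averaged over up to triplicate wells. On the rescaled values, 1 equals full and 0 equals none.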

| Structure (SMILES) | relative viability (0.00017 µM) | relative viability (0.00051 µM) | relative viability (0.00152 µM) | relative viability (0.00457 µM) | relative viability (0.01372 µM) | relative viability (0.04115 µM) | relative viability (0.1235 µM) | relative viability (0.3704 µM) | relative viability (1.111 µM) | relative viability (3.333 µM) | relative viability (10 µM) |
| --- | --- | --- | --- | --- | --- | --- | --- | --- | --- | --- | --- |
| CCCS(=O)(=O)Nc1ccc(F)c(C(=O)c2c[nH]c3ncc(-c4ccc(Cl)cc4)cc23)c1F [Vemurafenib] | 1.08 ± 0.029 | 1.074 ± 0.0078 | 1.08 ± 0.032 | 1.09 ± 0.017 | 1.09 ± 0.025 | 1.08 ± 0.023 | 1.09 ± 0.03 | 1.08 ± 0.03 | 1.07 ± 0.034 | 1.06 ± 0.018 | 0.601 ± 0.031 |
| COCc1c(-c2cc3cc(C)cc(OC)c3s2)c2c(N)ncnn2c1CN1CCNC(=O)C1 [Rogaratinib] | 1.09 ± 0.019 | 1.1 ± 0.014 | 1.08 ± 0.012 | 1.09 ± 0.0024 | 1.08 ± 0.032 | 1.06 ± 0.016 | 1.06 ± 0.018 | 1.06 ± 0.017 | 1.09 ± 0.023 | 1.04 ± 0.09 | 0.877 ± 0.031 |
| C=CC(=O)N1CCC([C@@H]2CCNc3c(C(N)=O)c(-c4ccc(Oc5ccccc5)cc4)nn32)CC1 [Zanubrutinib] | 1.01 ± 0.015 | 1.03 ± 0.024 | 1.03 ± 0.032 | 1.01 ± 0.015 | 1.041 ± 0.0094 | 1.05 ± 0.018 | 1.01 ± 0.013 | 1.04 ± 0.015 | 1.02 ± 0.023 | 1.01 ± 0.029 | 1.05 ± 0.03 |
| COc1cccc2c1C(=O)c1c(O)c3c(c(O)c1C2=O)C[C@@](O)(C(=O)CO)C[C@@H]3O[C@H]1C[C@H](N)[C@H](O)[C@H](C)O1 [Doxorubicin Hydrochloride] | 1.09 ± 0.024 | 1.08 ± 0.04 | 1.07 ± 0.042 | 1.07 ± 0.0061 | 1.02 ± 0.062 | 1.04 ± 0.033 | 0.814 ± 0.038 | 0.475 ± 0.029 | 0.266 ± 0.014 | 0.0899 ± 0.0038 | 0.058 ± 0.0052 |
| CC(C)NC(=O)C1CCC(n2c(NC(=O)c3ccc(F)cc3)nc3ccc(CN4CCC(C(C)(C)O)CC4)cc32)CC1 (centres undefined) [Belizatinib] | 1.09 ± 0.025 | 1.095 ± 0.005 | 1.109 ± 0.0095 | 1.1 ± 0.02 | 1.104 ± 0.011 | 1.1 ± 0.021 | 1.1 ± 0.016 | 1.09 ± 0.028 | 1.09 ± 0.033 | 0.996 ± 0.059 | 0.654 ± 0.033 |
| COc1cc2/c(=N/c3ccc(Br)cc3F)nc[nH]c2cc1OCC1CCN(C)CC1 [Vandetanib] | 1.05 ± 0.032 | 1.036 ± 0.0034 | 1.04 ± 0.014 | 1.05 ± 0.018 | 1.05 ± 0.045 | 1.04 ± 0.029 | 1.05 ± 0.024 | 1.03 ± 0.015 | 1.02 ± 0.017 | 0.888 ± 0.044 | 0.551 ± 0.023 |
| C[C@@H]1CCN(C(=O)CC#N)C[C@@H]1N(C)c1ncnc2[nH]ccc12 [Tofacitinib] | 1.08 ± 0.037 | 1.092 ± 0.01 | 1.08 ± 0.031 | 1.09 ± 0.036 | 1.05 ± 0.034 | 1.07 ± 0.053 | 1.06 ± 0.049 | 1.05 ± 0.029 | 1.03 ± 0.011 | 1.02 ± 0.051 | 0.941 ± 0.015 |
| Cn1cnc2c(F)c(Nc3ccc(Br)cc3F)c(C(=O)NOCCO)cc21 [Binimetinib] | 1.06 ± 0.034 | 1.09 ± 0.015 | 1.081 ± 0.004 | 1.097 ± 0.0049 | 1.06 ± 0.045 | 0.943 ± 0.075 | 0.857 ± 0.012 | 0.802 ± 0.066 | 0.425 ± 0.015 | 0.291 ± 0.016 | 0.276 ± 0.012 |
| Cc1nc(-c2cn3c(n2)-c2ccc(-c4cnn(C(C)(C)C(N)=O)c4)cc2OCC3)n(C(C)C)n1 [Taselisib] | 1.04 ± 0.023 | 1.039 ± 0.003 | 1.03 ± 0.03 | 1.02 ± 0.018 | 1.042 ± 0.0077 | 1.01 ± 0.023 | 1.02 ± 0.02 | 1.03 ± 0.022 | 0.99 ± 0.035 | 0.948 ± 0.011 | 0.688 ± 0.0095 |
| Nc1cc(C(F)(F)F)c(-c2cc(N3CCOCC3)nc(N3CCOCC3)n2)cn1 [Buparlisib] | 1.067 ± 0.01 | 1.03 ± 0.024 | 1.07 ± 0.038 | 1.06 ± 0.012 | 1.07 ± 0.033 | 1.05 ± 0.013 | 1.07 ± 0.022 | 1.07 ± 0.048 | 0.944 ± 0.053 | 0.426 ± 0.026 | 0.266 ± 0.013 |
| Cc1cnc(Nc2ccc(OCCN3CCCC3)cc2)nc1Nc1cccc(S(=O)(=O)NC(C)(C)C)c1 [Fedratinib] | 1.09 ± 0.023 | 1.08 ± 0.049 | 1.08 ± 0.05 | 1.09 ± 0.016 | 1.07 ± 0.022 | 1.06 ± 0.018 | 1.02 ± 0.029 | 1.01 ± 0.039 | 0.905 ± 0.046 | 0.511 ± 0.017 | 0.216 ± 0.0037 |
| COc1cc2c(Oc3ccc4[nH]c(C)cc4c3F)ncnc2cc1OCCCN1CCCC1 [Cediranib] | 1.08 ± 0.025 | 1.11 ± 0.02 | 1.09 ± 0.013 | 1.08 ± 0.015 | 1.09 ± 0.018 | 1.09 ± 0.014 | 1.04 ± 0.027 | 1.07 ± 0.029 | 1.036 ± 0.0041 | 1.05 ± 0.016 | 1.03 ± 0.023 |
| CC(=O)Nc1cccc(-n2c(=O)n(C3CC3)c(=O)c3c(Nc4ccc(I)cc4F)n(C)c(=O)c(C)c32)c1 [Trametinib] | 1.08 ± 0.012 | 1.09 ± 0.014 | 1.05 ± 0.019 | 0.975 ± 0.048 | 0.532 ± 0.055 | 0.312 ± 0.013 | 0.278 ± 0.0054 | 0.275 ± 0.011 | 0.256 ± 0.0076 | 0.25 ± 0.014 | 0.231 ± 0.02 |
| CC(C)N1CCN(Cc2cnc(-c3cc(-c4cccc5[nH]ccc45)cc4[nH]ncc34)o2)CC1 [Nemiralisib] | 1.01 ± 0.024 | 1.02 ± 0.024 | 1.02 ± 0.029 | 1.01 ± 0.03 | 1.01 ± 0.026 | 1.02 ± 0.013 | 1.02 ± 0.021 | 1.03 ± 0.018 | 1.04 ± 0.038 | 1.03 ± 0.038 | 1.01 ± 0.034 |
